The test system of test [1] is Ramos B-Cell Line Stimulated with IL-4. In words: Assay for Ramos B-Cell Line Stimulated with IL-4 (CD23 upregulation, FACS; Example 2). Conditions: human Ramos B cells, IL-4 50 units/mL for 20-24 hours, anti-CD23-PE. Type of test: cell-based. The source says:
One means of assaying for such inhibition is detection of the effect of the 2,4-pyrimidinediamine compounds on the upregulation of downstream gene products. In the Ramos/IL4 assay, B-cells are stimulated with the cytokine Interleukin-4 (IL-4) leading to the activation of the JAK/Stat pathway through phosphorylation of the JAK family kinases, JAK1 and JAK3, which in turn phosphorylate and activate the transcription factor Stat-6. […] To study the effect of inhibitors (e.g., the 2,4-substituted pyrimindinediamine compounds described herein) on the JAK1 and JAK3 kinases, human Ramos B cells are stimulated with human IL-4. 20 to 24 hours post stimulation, cells are stained for upregulation of CD23 and analyzed using flow cytometry (FACS). […] An exemplary assay of this type is described in greater detail in Example 2.
B-cells stimulated with cytokine Interleukin-4 (IL-4) activate the JAK/Stat pathway through phosphorylation of the JAK family kinases, JAK-1 and JAK-3, which in turn phosphorylate and activate the transcription factor Stat-6. […] To study the effect of inhibitors on the JAK family kinases, human Ramos B cells are stimulated with human IL-4.
The Ramos B-cell line was acquired from ATCC (ATCC Catalog No. CRL-1596). The cells were cultured in RPMI 1640 (Cellgro, MediaTech, Inc., Herndon, Va., Cat No. 10-040-CM) with 10% fetal bovine serum (FBS), heat inactivated (JRH Biosciences, Inc, Lenexa, Kans., Cat No. 12106-500M) according to ATCC propagation protocol. Cells were maintained at a density of 3.5×10^5. The day before the experiment, Ramos B-cells were diluted to 3.5×10^5 cells/mL to ensure that they were in a logarithmic growth phase.
Cells were spun down and suspended in RPMI with 5% serum. 5×10^4 cells were used per point in a 96-well tissue culture plate. Cells were pre-incubated with compound or DMSO (Sigma-Aldrich, St. Louis, Mo., Cat No. D2650) vehicle control for 1 hour in a 37° C. incubator.
Cells were then stimulated with IL-4 (Peprotech Inc., Rocky Hill, N.J., Cat No. 200-04) for a final concentration of 50 units/mL for 20-24 hours. Cells were then spun down and stained with anti-CD23-PE (BD Pharmingen, San Diego, Calif., Cat No. 555711) and analyzed by FACS. Detection was performed using a BD LSR I System Flow Cytometer, purchased from Becton Dickinson Biosciences of San Jose, Calif.

Test [2] concerns BaF3 V617F cells; UKE-1. Put plainly: Proliferation Assay (Cell Titer-Glo; Example 7). Type of test: cell-based. Conditions: proliferation 72 hours, inhibit JAK2 activity, cell line (BaF3 V617F or UKE-1) not stated. Put shortly:
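BaF3 V617F cells (RPMI, 10% FBS) and UKE-1 cells (Iscove's DMEM, 10% FBS, 10% equine serum, 1 uM hydrocortisone) were exposed to 3-fold serially diluted compound in duplicate for 72 hours at 37 °C. Viable cell number quantified by Cell Titer-Glo luminescence; IC50 reported.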
(In general: In ATP-based viability assays light output follows the ATP content of the culture.)

As a reminder, the IC50 is the concentration needed to halve the response being measured. Read a low IC50 as higher potency. In the case of `Cc1cc(C)cc(Nc2ncc(F)c(Nc3ccc(CNS(=O)(=O)C4CC4)cc3)n2)c1` [II-4, N4-(4-cyclopropylsulfonylaminomethyl)phenyl-N2-(3,5-dimethyl)phenyl-5-fluoro-2,4-pyrimidinediamine], the IC50 in test [1] came out at 88 nM; in test [2] it was 3400 nM.
As for `N#Cc1ccc(Nc2ncc(F)c(Nc3ccc(CNS(=O)(=O)C4CC4)cc3)n2)cc1Cl` [II-5, N2-(3-chloro-4-cyano)phenyl-N4-(4-cyclopropylsulfonylaminomethyl)phenyl-5-fluoro-2,4-pyrimidinediamine], the IC50 came to 364 nM in test [1] and 6060 nM in test [2].
The matching figures for `Cc1cnc(Nc2cccc(C#N)c2)nc1Nc1ccc(CN(C)S(=O)(=O)C2CC2)cc1` [II-28, N2-(3-cyano)phenyl-N4-[4-(N-cyclopropylsulfonyl-N-methyl)aminomethyl]phenyl-5-methyl-2,4-pyrimidinediamine]: 233 nM and 10900 nM.
The matching figures for `Cc1cnc(Nc2cccc(C#N)c2)nc1Nc1ccc(CNS(=O)(=O)C2CC2)cc1` [II-34, N2-(3-cyano)phenyl-N4-(4-cyclopropylsulfonylaminomethyl)phenyl-5-methyl-2,4-pyrimidinediamine]: 45.5 nM and 460 nM.
In the same order, the values of `Cc1cnc(Nc2ccc(C3CCN(C)CC3)cc2)nc1Nc1ccc2c(c1)C(NS(C)(=O)=O)CC2` (racemic) [V-2, (+/−)-5-Methyl-N2-[4-(1-methyl-4-piperidinyl)pheny]-N4-[1-(methylsulfonyl)aminoindan-6-yl]-2,4-pyrimidinediamine] are 1220 nM and 807 nM.
In the case of `COc1cc(Nc2ncc(C)c(Nc3cccc(CNS(=O)(=O)C4CC4)c3)n2)cc(OC)c1OC` [II-13, N4-(3-cyclopropylsulfonylaminomethyl)phenyl-5-methyl-N2-(3,4,5-trimethoxy)phenyl-2,4-pyrimidinediamine], the IC50 in test [1] was found to be 126 nM; in test [2], 359 nM.
In the same order, the values of `Cc1nc2cc(Nc3ncc(C)c(Nc4ccc(CNS(=O)(=O)C5CC5)cc4)n3)ccc2[nH]1` [III-3, N4-(4-cyclopropylsulfonylaminomethyl)phenyl-5-methyl-N2-(2-methylbenzoimidazol-5-yl)-2,4-pyrimidinediamine] are 49.4 nM and 5800 nM.
The matching figures for `O=S(=O)(NCc1ccc(Nc2nc(Nc3ccc4ccn(CCN5CCOCC5)c4c3)ncc2F)cc1)C1CC1` [III-1, N4-[4-(Cyclopropylsulfonylaminomethyl)phenyl]-5-fluoro-N2-[1-(2-(N-morpholino)ethyl)indol-6-yl]-2,4-pyrimidinediamine]: 290 nM and 2970 nM.
In the same order, the values of `COc1ccc(Nc2ncc(Cl)c(Nc3ccc(CNS(=O)(=O)C4CC4)cc3)n2)cc1Cl` [II-35, 5-chloro-N2-(3-chloro-4-methoxy)phenyl-N4-(4-cyclopropylsulfonylaminomethyl)phenyl-2,4-pyrimidinediamine] are 48.9 nM and 912 nM.
Consider `CCN1CCN(c2ccc(Nc3ncc(C)c(Nc4ccc(CNS(=O)(=O)C5CC5)cc4)n3)cc2C)CC1` [II-8, N4-(4-cyclopropylsulfonylaminomethyl)phenyl-N2-[4-(4-ethylpiperazino)-3-methyl]phenyl-5-methyl-2,4-pyrimidinediamine], for which the IC50 in test [1] turned out to be 36.2 nM; in test [2], 200 nM.
Turning to `CCN1CCN(c2ccc(Nc3ncc(F)c(Nc4ccc(CNS(=O)(=O)C5CC5)cc4)n3)cc2C)CC1` [II-6, N4-(4-cyclopropylsulfonylaminomethyl)phenyl-N2-[4-(4-ethylpiperazino)-3-methyl]phenyl-5-fluoro-2,4-pyrimidinediamine], the IC50 amounted to 36.4 nM in test [1] and 138 nM in test [2].
Regarding `O=S(=O)(NCc1ccc(Nc2nc(NC3CCCC3)ncc2F)cc1)C1CC1` [VIII-2, N2-cyclopentyl-N4-(4-cyclopropylsulfonylaminomethyl)phenyl-5-fluoro-2,4-pyrimidinediamine], the figures for the IC50 in test [1] and in test [2] were 1920 nM and 56100 nM, respectively.
The matching figures for `COc1c(C)cc(Nc2ncc(C)c(Nc3cccc(CNS(=O)(=O)C4CC4)c3)n2)cc1C` [II-44, N4-(3-cyclopropylsulfonylaminomethyl)phenyl-N2-(3,5-dimethyl-4-methoxy)phenyl-5-methyl-2,4-pyrimidinediamine]: 78.3 nM and 488 nM.
The matching figures for `Cc1cnc(Nc2ccc(C(N)=O)cc2)nc1Nc1cccc(CN(C)S(=O)(=O)C2CC2)c1` [II-21, N2-(4-aminocarbonyl)phenyl-N4-[3-(N-cyclopropylsulfonyl-N-methyl)aminomethyl]phenyl-5-methyl-2,4-pyrimidinediamine]: 110 nM and 479 nM.
On to `Cc1cnc(Nc2ccc(C(N)=O)cc2)nc1Nc1cccc(CNS(=O)(=O)C2CC2)c1` [II-23, N2-(4-aminocarbonyl)phenyl-N4-(3-cyclopropylsulfonylaminomethyl)phenyl-5-methyl-2,4-pyrimidinediamine], for which the IC50 in test [1] was 107 nM; in test [2], 6140 nM.
Consider `CCN1CCN(c2ccc(Nc3ncc(C)c(Nc4cccc(CNS(=O)(=O)C5CC5)c4)n3)cc2C)CC1` [II-12, N4-(3-cyclopropylsulfonylaminomethyl)phenyl-N2-[4-(4-ethylpiperazino)-3-methyl]phenyl-5-methyl-2,4-pyrimidinediamine], for which the IC50 in test [1] came to 101 nM; in test [2] it was 130 nM.
Regarding `Cc1cnc(Nc2cccc(C#N)c2)nc1Nc1cccc(CNS(=O)(=O)C2CC2)c1` [II-26, N2-(3-cyano)phenyl-N4-(3-cyclopropylsulfonylaminomethyl)phenyl-5-methyl-2,4-pyrimidinediamine], the results for the IC50 in test [1] and in test [2] were 146 nM and 2240 nM, respectively.
With `COc1ccc(Nc2ncc(F)c(Nc3ccc(CNS(=O)(=O)C4CC4)cc3)n2)cc1Cl` [II-3, N2-(3-chloro-4-methoxy)phenyl-N4-(4-cyclopropylsulfonylaminomethyl)phenyl-5-fluoro-2,4-pyrimidinediamine], the midpoint of inhibition in test [1], the IC50, lay at 116 nM.
Same read-out and setting: for `COc1cc(Nc2ncc(C)c(Nc3ccc4c(c3)C(NS(C)(=O)=O)CC4)n2)cc(OC)c1OC` (racemic) [V-1, (+/−)-5-Methyl-N4-[1-(methylsulfonylamino)indan-6-yl]-N2-(3,4,5-trimethoxyphenyl)-2,4-pyrimidinediamine] the value was 401 nM.
The same measure, in the same setting: for `Cc1cnc(Nc2ccc3[nH]c(-c4cccs4)nc3c2)nc1Nc1ccc(CNS(=O)(=O)C2CC2)cc1` [IV-5, N4-(4-cyclopropylsulfonylaminomethyl)phenyl-5-methyl-N2-[2-(thien-2-yl)benzoimidazol-5-yl]-2,4-pyrimidinediamine] the value was 87.3 nM.
The same measure, in the same setting: for `Cc1cc(Nc2ncc(F)c(Nc3ccc4c(c3)CCN4S(C)(=O)=O)n2)ccc1N1CCN(C)CC1` [VIII-5] the value was 70.9 nM; for `C#CCNS(=O)(=O)c1ccc(Nc2nc(Nc3cc(C)c(OC)c(C)c3)ncc2F)cc1` [I-5, N2-(3,5-Dimethyl-4-methoxyphenyl)-5-fluoro-N4-[4-(prop-2-ynylaminosulfonyl)phenyl]-2,4-pyrimidinediamine], 31.6 nM.
On to `COc1cccc(N(C)c2ncc(N)c(Nc3cccc(S(N)(=O)=O)c3)n2)c1` [I-10, 5-Amino-N4-(3-aminosulfonylphenyl)-N2-(3-methoxyphenyl)-N2-methyl-2,4-pyrimidinediamine], for which the IC50 in test [1] is 64200 nM.
On the same count and under the same terms, as for `Cc1cnc(Nc2ccc3[nH]c(CN4CCOCC4)nc3c2)nc1Nc1ccc(CNS(=O)(=O)C2CC2)cc1` [IV-6, N4-(4-cyclopropylsulfonylaminomethyl)phenyl-5-methyl-N2-[2-(morpholin-4-yl)methylbenzoimidazol-5-yl]-2,4-pyrimidinediamine], the figure is 207 nM.
On the same count and under the same terms, for `CNC(=O)COc1cccc(Nc2ncc(N)c(Nc3ccc(S(N)(=O)=O)cc3)n2)c1` [I-6, 5-Amino-N4-(4-aminosulfonylphenyl)-N2-[3-(N-methylamino)carbonylmethyleneoxyphenyl]-2,4-pyrimidinediamine] the value was 8800 nM.

(Values after US8304422B2, “Compositions and methods for inhibition of the JAK pathway” (Rigel Pharmaceuticals, Inc., priority 2007, dated 2012).)
